Measurements published in PMC7303324, “Conventional Pig as Animal Model for Human Renal Drug Excretion Processes: Unravelling the Porcine Renal Function by Use of a Cocktail of Exogenous Markers” (Frontiers in Pharmacology, 2020).
Values joined by “and” are separate entries in the source; they are usually repeats but may differ in a detail not shown here. Identical values can stand only once. Like-named read-outs stand apart in the source and are kept apart here. One block for each molecule: values may come before it.

How the values were obtained:
plasma proteins [1] = tested on: plasma proteins; set-up: method as in Hsyu and Giacomini, 1985; settings: humans; ref Hsyu and Giacomini, 1985; cited from earlier work
ERPF and GFR = tested on: ERPF and GFR; set-up: method as in Epstein et al., 1985; settings: dogs, IV administration; ref Epstein et al., 1985; cited from earlier work
[2] = set-up: method as in Friedli et al., 1986; settings: pigs with induced myocardial infarction, IV 0.05 mg/kg; ref Friedli et al., 1986; cited from earlier work
[3] = humans; ref Schwarz, 1982; cited from earlier work
GFR = settings: hypertensive patients, ref Wainer et al., 1980, cited from earlier work
[4] = pig, in vivo, iv
Source text: (§1) Eight healthy, stress resistant, 6-week-old male piglets (Landrace × Large White × Maximus, Seghers Hybrid®, Wuustwezel, Belgium) were recruited for this study. Upon arrival piglets were group-housed in standard pig stables (2.30 × 2.40 m) with ad libitum access to water and feed (Piggistart Opti®, Aveve, Leuven, Belgium). During the whole experimental period, stables were enriched with rubber toys, balls of different size, and cotton towels. After a 5-day acclimatization period, a double-lumen jugular catheter was inserted following the procedure described by Gasthuys et al., permitting accurate intravenous (IV) administration of the renal markers and blood collection ([Gasthuys et al., 2017b]). During anesthesia, a human stoma ring (Esteem synergy® Uro, 48 mm, ConvaTec, Belgium) was attached around the prepuce of the piglets to allow urine collection ([Gasthuys et al., 2017b]). After surgery, the pigs were housed individually to avoid displacements of the catheters and stoma rings. Catheters were flushed at least twice daily with heparinized 0.9% NaCl (50 IU/ml), and the bandages were changed daily.
(§2) After a one day recovery period, urine pouches were attached to the stoma ring just before administration of the drugs. […] Blood was sampled via the other lumen of the catheter at 0, 5, 15, 30, 45, and 60 min, and 2, 4, 6, 8, 12, 24, 36, 48, and 72 h post administration and collected into K3EDTA collection tubes (Vacutest®, Piove die Sacco, Kima, Italy). The samples were kept on ice and centrifuged (2,095 × g, 10 min, 4°C) within 2 h. Multiple timed urine collections were performed over a 48 h time period. The total volume of urine voided in each time period was registered. Aliquots of plasma were stored at ≤−80°C until analysis. Urine samples were initially stored at −20°C for 6 weeks, but were subsequently stored at −80°C for further storage.
(§3) Total plasma iohexol and PAH concentrations were quantified simultaneously using a validated ultrahigh performance liquid chromatography tandem mass spectrometry (UHPLC-MS/MS) method as previously described by [Dhondt et al. (2019)] […] The same UHPLC method was used for analysis of PAH in urine samples with slight modifications. The LLOQ was 0.25 µg/ml.
(§4) Pharmacokinetic modeling of the plasma concentration–time data was performed using Phoenix® 8.1 (Certara, Cary, NC, USA). Values below the LOQ were excluded from the dataset. […] A multiplicative error model was used. […] The estimated primary parameters were volume of distribution (Vd) and total body clearance (CLTOT). Also the following secondary parameters were calculated: elimination half-life (T1/2el), elimination rate constant (Ke), volume of distribution at steady state (Vss), and the area under the curve from time 0 h to infinity (AUC0→inf).
(§5) The cumulative amount of unchanged compound recovered in the urine (Ae) was calculated taking the sum of the amount excreted at every collection point. This amount was calculated by multiplying the observed concentration by the volume collected at every collection point.
(§6) where AUC0→inf is the area under the plasma concentration–time curve extrapolated to infinity. […] The AUC0→48h was calculated by noncompartmental analysis (NCA) using the linear up-log down trapezoidal method. The nonrenal clearance (CLNR) was obtained by subtracting the CLR from CLTOT. The CLTOT of iohexol is a measure for the GFR. The CLR of PAH is used to estimate the ERPF. The filtration fraction (FF) was calculated by

plasma proteins [5] = tested on: plasma proteins; set-up: method as in Humphrey et al., 1985; settings: other species like humans, dogs, rats, and mice; ref Humphrey et al., 1985; cited from earlier work
[6] = healthy human adults, ref Gross et al. (2001), cited from earlier work; for Net tubular reabsorption (CLREA): fluconazole given orally; for Net tubular secretion (CLSECR): pindolol given orally
[7] = Pharmacokinetics and renal clearance of a renal marker cocktail after IV bolus in 7-week-old male pigs; settings: for CL renal: plasma and urine
Source text: as §1, §2, §3, §4, §5, §6

plasma proteins [8] = test: In vitro plasma protein binding by ultrafiltration in spiked pig plasma; assay type: in vitro ADME; settings: 39°C, fluconazole corrected for NSB
Protocol: Three aliquots of each concentration level were analyzed the same way as the pharmacokinetic (PK) study samples as described above to determine the total plasma concentration. Three other aliquots of each concentration were incubated for 1 h in a hot water bath of 39°C to replicate the pig's core body temperature and subsequently transferred onto an ultrafiltration device. […] Thereafter, the obtained filtrate was analyzed in the same way as the PK study samples to determine the unbound plasma concentration. The following equation was used to determine the unbound fraction in plasma: […]
The duration of centrifugation was reduced to 2.5 and 1.0 min for Microcon® and Amicon® filters, respectively.
Cunbound,corrected=Cunbound,measured/1-NSB

[9] = set-up: method as in Gasthuys et al., 2017a; settings: pigs of 7 weeks of age; ref Gasthuys et al., 2017a; cited from earlier work
[10] = humans, cited from earlier work
porcine kidney = tested on: porcine kidney; set-up: method as in Gyrd-Hansen and Rasmussen (1970); settings: in vivo, pigs; ref Gyrd-Hansen and Rasmussen (1970); cited from earlier work
[11] = corrected for estimated mean BSA
[12] = male, Landrace × Large White × Maximus (Seghers Hybrid), pig, plasma, iv
[13] = male, Landrace × Large White × Maximus (Seghers Hybrid), pig, plasma, iv, 0.5 mg/kg
[14] = 7-week-old male pigs, indexed to BSA, mean ± SD

Molecule: CC(C)NCC(O)COc1cccc2[nH]ccc12 (centres unmarked) [pindolol]
fu (plasma proteins [1]): 0.45 | Effect on ERPF and GFR (ERPF and GFR): slight but insignificant decrements in ERPF and GFR | Hemodynamical changes [2]: did not induce any hemodynamical changes | Urinary excretion of unchanged pindolol [3]: 35% | Decrease in GFR against baseline, average (GFR; IV administration): 4.37% | Decrease in GFR against baseline, range (GFR; IV administration): 0.96−9.43% | Effect on GFR against baseline (GFR; oral administration): no significant effect

Molecule: OC(Cn1cncn1)(Cn1cncn1)c1ccc(F)cc1F [Fluconazole, fluconazole]
CLNR ([4]; male, Landrace × Large White × Maximus (Seghers Hybrid)): 0.13 ± 0.039 mL/min/kg | Plasma protein binding (plasma proteins [5]): ~ 12% | Net tubular reabsorption (CLREA) [6, 11]: 49.21 ± 15.34 ml/min/m² | Net tubular reabsorption (CLREA) ([6]; corrected for mean BW 72 kg): 1.29 ± 0.40 mL/min/kg | CL renal ([7]; male, Landrace × Large White × Maximus (Seghers Hybrid), pig, iv, 0.5 mg/kg, CLR, IV bolus, 7-week-old male pigs, n = 6, Ae/AUC0→inf (fluconazole: Ae 48 h/AUC0→48h), mean ± SD): 0.32 ± 0.05 mL/min/kg | CL renal ([7]; male, Landrace × Large White × Maximus (Seghers Hybrid), pig, iv, 0.5 mg/kg, Renal clearance calculated over a time period of 24 h, pigs, IV 0.5 mg/kg, data up to 24 h): 0.33 ± 0.06 mL/min/kg | CL renal ([7]; male, Landrace × Large White × Maximus (Seghers Hybrid), pig, iv, 0.5 mg/kg, Renal clearance estimated over 48 h, pigs, IV 0.5 mg/kg, data up to 48 h): 0.32 ± 0.05 mL/min/kg | clearance [7, 12]: 0.45 ± 0.049 mL/min/kg | Vd [7, 13]: 0.98 ± 0.04 L/kg | clearance [7, 13]: 0.45 ± 0.05 mL/min/kg | half-life [7, 13]: 25.7 ± 2.75 h | k el [7, 13]: 8.33e-06 s⁻¹

Molecule: CC(C)NC[C@H](O)COc1cccc2[nH]ccc12 [S-pindolol]
Fu, free, non-protein bound, fraction (plasma proteins [8]): 0.62 ± 0.00^3

Molecule: sinistrin
GFR (renal clearance of sinistrin) [6, 11]: 68.78 ± 21.16^2 ml/min/m² | GFR (renal clearance of sinistrin) ([6]; corrected for mean BW 72 kg): 1.81 ± 0.56^2 ml/min/kg

GFR = CLTOT IOH [7, 14]: 97.87 ± 16.05 ml/min/m² | clearance ([7]; male, Landrace × Large White × Maximus (Seghers Hybrid), pig, plasma, intravenous, 64.7 mg/kg BW): 4.12 ± 0.54 mL/min/kg | clearance [7, 12]: 4.12 ± 0.54 mL/min/kg
Molecule: CC(=O)N(CC(O)CO)c1c(I)c(C(=O)NCC(O)CO)c(I)c(C(=O)NCC(O)CO)c1I (centres unmarked) [Iohexol, iohexol]
Iohexol clearance [9]: 100.92 ± 20.84 ml/min/m²

Molecule: CC(C)NC[C@@H](O)COc1cccc2[nH]ccc12 [R-pindolol]
Fu, free, non-protein bound, fraction (plasma proteins [8]): 0.19 ± 0.03^3

Molecule: Nc1ccc(C(=O)NCC(=O)O)cc1 [PAH, para-aminohippuric acid]
Fu, free, non-protein bound, fraction (plasma proteins [8]): 1.0 | CLR [4]: 9.51 ± 2.44 mL/min/kg | Nonrenal clearance as share of total drug elimination ([10]; ref Prescott et al., 1993): 15 to 30% | Plasma concentration at which saturation of the transport system is observed ([10]; ref Tett et al., 2003): 300 to 600 µg/mL | Amount of PAH acetylated by the porcine kidney, mean (porcine kidney): −0.1% | ERPF = CLR PAH [6, 11]: 247.09 ml/min/m² and 247.09 ± 77.25 ml/min/m² | ERPF = CLR PAH ([6]; corrected for mean BW 72 kg): 6.48 ± 2.02 mL/min/kg | Net tubular secretion (CLSECR) [6, 11]: 189.95 ml/min/m² and 189.95 ± 70.90 ml/min/m² | Net tubular secretion (CLSECR) ([6]; corrected for mean BW 72 kg): 4.99 mL/min/kg and 4.99 ± 1.86 mL/min/kg | ERPF = CLR PAH [7, 14]: 226.77 ml/min/m² and 226.77 ± 62.45 ml/min/m² | ERPF = CLR PAH ([7]; 7-week-old male pigs, indexed to BW, mean ± SD): 9.51 ± 2.44 mL/min/kg | Urinary recovery ([7]; IV bolus, 7-week-old male pigs, fraction of dose recovered unchanged in urine, n = 6): 30.09 ± 5.06% | CLNR ([7]; IV bolus, 7-week-old male pigs, n = 6, CLTOT minus CLR, mean ± SD): 22.02 mL/min/kg and 22.02 ± 3.76 mL/min/kg | Ae, cumulative amount of unchanged compound recovered in the urine ([7]; IV bolus, 7-week-old male pigs, urine collected over 48 h, n = 6, mean ± SD): 29,512 ± 5751 µg | CLTOT ([7]; Table 1, IV bolus, 7-week-old male pigs, iohexol n = 8, others n = 6, mean ± SD): 31.53 ± 5.38 mL/min/kg | Contribution of nonrenal elimination to total clearance ([7]; pigs): approximately 70% | PAH plasma concentrations reached ([7]; pigs, IV bolus 10 mg/kg BW): below 30 µg/ml
